# Experiments:
# [1] = system: EDEN2; assay: Non-lethal viremia mouse model; assay type: in vivo, mice
# Description: (§1) Mice were inoculated i.v. with EDEN1 (7×10^7 pfu) or EDEN2 (1×10^8 pfu). […] Average viral copy numbers on day 1 and 2 were measured using mixed serum of each group. […] A P value less than 0.05 was considered significant (*P<0.05). The number of mice per group is 6. […] Average viral copy numbers on days 4 and 5 were measured using mixed serum of each group. […] The virological log reduction (VLR) from day 3 to day 6 was also shown as the mean value and standard deviations. The number of mice per group is 6.
# (§2) Since dengue fever patients in general present at a clinic when viremia is at a peak level (Low et al., 2014; Nguyen et al., 2013; Tricou et al., 2010), we next compared the 2 different dosing regimens; one started at the time of infection and another started at the time of peak viremia (on day 3 pi) similar to human situation (FIG. 4A). In this experiment, we used a non-lethal viremia mouse model, which permits the tracking of viremia kinetics for a longer period of time (FIG. 1B).
# [2] = system: EDEN1; assay: Non-lethal viremia mouse model; assay type: in vivo, mice
# Description: as §1, §2
# [3] = system: DENV2; assay: Survival of DENV2 infected mice in a lethal ADE model of viremia (FIG. 5B); assay type: in vivo
# Description: Survival at day 12 was 1/8 (13%) at 10 mg/kg twice daily (BID), 5/8 (63%) at 25 mg/kg BID, 7/7 (100%) at 50 mg/kg BID, and 0/8 (0%) at 100 mg/kg once daily (QD).
# [4] = system: EDEN2; assay: Lethal ADE infection model in AG129 mice (4G2 Ab pre-injection); assay type: in vivo
# Description: (§3) AG129 mice were inoculated i.v. with EDEN1 (7×10^7 pfu), EDEN2 (1×10^8 pfu) or S221 (2×10^4 pfu) for non-lethal infection. For the ADE infection (lethal), mice were pre-injected i.p. with 50 μg (for EDEN1 and EDEN2) or 10 μg (for S221) 4G2 Ab one day prior to infection. (A) Mouse survival rate was monitored by day 10 pi. (B) Blood samples were collected on days 1-8 pi and mixed serum from each group were subjected to real-time RT-PCR to obtain the average viral genome copy numbers. (C) Serum levels of TNFα and IL-6 were measured by ELISA assay. The numbers of mice per group are 6 (EDEN1) or 5 (EDEN2 and S221).
# (§4) AG129 mice were pre-injected i.p. with 50 μg (for EDEN1 and EDEN2) or 10 μg (for S221) 4G2 Ab followed by next day inoculation i.v. with EDEN1 (7×10^7 pfu), EDEN2 (1×10^8 pfu) or S221 (2×10^4 pfu). […] (A) Mouse survival rate was monitored by day 10 pi. (B) Blood samples were collected on day 1-4 pi and mixed serum from each group were subjected to real-time RT PCR to obtain the average viral genome copy numbers (left panels). […] A P value less than 0.05 was considered significant (*P<0.05). The number of mice per group is 5.
# (§5) AG129 mice were pre-injected i.p. with 4G2 Ab followed by next day inoculation i.v. with EDEN1, EDEN2 or S221 as described above. […] (A) Mouse survival rate was monitored by day 10 pi. (B) Blood samples were collected on days 1-4 pi and mixed serum from each group were subjected to real-time RT PCR to obtain the average viral genome copy numbers (left panels). […] A P value less than 0.05 was considered significant (*P<0.05). The number of mice per group is 6.
# (§6) AG129 mouse models of clinical DENV strains, EDEN1 and EDEN2, in addition to mouse-adapted S221 strain were developed. To increase infection level in mice, high virus titer of EDEN1 (7×10^7 pfu) and EDEN2 (1×10^8 pfu) were inoculated intravenously (iv) into AG129 mice.
# [5] = system: S221; assay: as above; assay type: in vivo
# Description: as §3, §4, §5, §6
# [6] = system: EDEN1; assay: as above; assay type: in vivo
# Description: as §3, §4, §5, §6
# [7] = system: EDEN2 (clinical DENV2 isolate); assay: Antiviral effect in BHK-21 cells, plaque assay of supernatant 48 h pi; assay type: cell-based; conditions: Dengue virus, DENV2, BHK-21
# Description: (§7) Cells were infected with DENV strains for 1 hour at 37° C. and washed once with culture media. […] The supernatants were subjected to standard plaque assay and the EC50 values were determined using the GraphPad Prism software.
# (§8) NITD008, an adenosine analog inhibitor of DENV polymerase (Yin et al., 2009) was used as a positive control.
# [8] = system: EDEN1 (clinical DENV1 isolate); assay: as above; assay type: cell-based
# Description: as §7, §8
# [9] = system: S221 (mouse-adapted DENV2 strain); assay: as above; assay type: cell-based; conditions: Dengue virus, DENV2, BHK-21
# Description: as §7, §8
# [10] = system: EDEN2 (clinical DENV2 isolate); assay: Antiviral effect in HuH-7 cells, plaque assay of supernatant 48 h pi; assay type: cell-based
# Description: as §7, §8
# [11] = system: EDEN1 (clinical DENV1 isolate); assay: as above; assay type: cell-based
# Description: as §7, §8
# [12] = system: S221 (mouse-adapted DENV2 strain); assay: as above; assay type: cell-based
# Description: as §7, §8
smiles,measurement,setting,value
CCCC(=O)O[C@H]1CN2CC[C@H](O)[C@@H]2[C@@H](O)[C@@H]1O [celgosivir],log reduction of viremia (VLR) from day 3 to day 6,"[1]; EDEN2, celgosivir 50 mg/kg BID started at peak viremia (day 3)",2.62
same,viremia reduction on day 3 pi,"[1]; EDEN2, non-lethal model, celgosivir 50 mg/kg BID from time of infection",9.0 fold
same,log reduction of viremia (VLR) from day 3 to day 6,"[2]; EDEN1, celgosivir 50 mg/kg BID started at peak viremia (day 3)",0.85
same,viremia reduction on day 3 pi,"[2]; EDEN1, non-lethal model, celgosivir 50 mg/kg BID from time of infection",2.9 fold
same,Survival at day 12,[3]; 10 mg/kg twice daily (BID),13%
same,Survival at day 12,[3]; 25 mg/kg BID,63%
same,Survival at day 12,[3]; 50 mg/kg BID,100%
same,Survival at day 12,[3]; 100 mg/kg once daily (QD),0%
same,protection from death (survival),"[4]; EDEN2, 10 mg/kg BID from time of infection",100%
same,viremia reduction versus VC on day 3,"[4]; EDEN2, lethal ADE model, 10 mg/kg BID from day 0",3.7 fold
same,lower viremia level than vehicle control on day 3 pi,"[4]; EDEN2, lethal ADE model, 50 mg/kg BID from day 0",16.5 fold
same,protection from death (survival),"[5]; S221, 10 mg/kg BID from time of infection",could not protect mice from death
same,protection from lethal infection (survival),"[5]; S221, 50 mg/kg BID orally from time of infection",completely protected mice from lethal infection
same,viremia reduction versus VC on day 3,"[5]; S221, lethal ADE model, 10 mg/kg BID from day 0",1.4 fold
same,lower viremia level than vehicle control on day 3 pi,"[5]; S221, lethal ADE model, 50 mg/kg BID from day 0",2.4 fold
same,protection from death (survival),"[6]; EDEN1, 10 mg/kg BID from time of infection",could not protect mice from death
same,viremia reduction versus VC on day 3,"[6]; EDEN1, lethal ADE model, 10 mg/kg BID from day 0",1.8 fold
same,lower viremia level than vehicle control on day 3 pi,"[6]; EDEN1, lethal ADE model, 50 mg/kg BID from day 0",4.3 fold
same,EC50,[7],61 nM
same,EC50,"[8]; BHK-21, BHK-21, EDEN1, MOI 0.01",66 nM
same,EC50,"[8]; BHK-21, BHK-21, EDEN1, MOI 0.3",105 nM
same,EC50,[9],119 nM
same,EC50,"[10]; Dengue virus, DENV2, Huh-7, HuH-7, EDEN2, MOI 0.3",820 nM
same,EC50,"[10]; HuH-7, EDEN2, MOI 0.3",824 nM
same,EC50,"[11]; HuH-7, EDEN1, MOI 0.01",5960 nM
same,EC50,"[11]; HuH-7, EDEN1, MOI 0.3",17400 nM
same,EC50,"[11]; Huh-7, HuH-7, EDEN1, MOI 0.01",6000 nM
same,EC50,"[11]; Huh-7, HuH-7, EDEN1, MOI 0.3",17400 nM
same,EC50,"[12]; Dengue virus, DENV2, Huh-7, HuH-7, S221, MOI 0.3",5100 nM
same,EC50,"[12]; HuH-7, S221, MOI 0.3",5090 nM
